Test results published in the supplement of paper PMC11061612.

Assays:
[1] = compound: C1CC(C1)(C(=O)[O-])C(=O)[O-].N.N.[Pt+2] [Carboplatin]; details: max 10 µM
Summary of the method: (§1)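 In 1536-well plates, cancer cell lines in 7.5 μl DMEM/F12 or RPMI with 10% FBS spent 24 hours at 37°C and 5% CO2 and were then dosed for 72 hours with final DMSO typically 0.2%. Viability was read by CellTiter-Glo 2.0 luminescence and scaled between blank-well and DMSO-well means. The single-agent IC50 was fitted from dose responses using a logistic curve in a non-linear mixed effects model, and that logistic curve had two parameters.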

[2] = compound: C1CN(CCC1(C(=O)N[C@@H](CCO)C2=CC=C(C=C2)Cl)N)C3=NC=NC4=C3C=CN4 [AZD5363]; details: max 10 µM
Summary of the method: as §1

[3] = compound: C=CCn1c(=O)c2cnc(Nc3ccc(N4CCN(C)CC4)cc3)nc2n1-c1cccc(C(C)(C)O)n1 [AZD1775]
Summary of the method: as §1

[4] = compound: CC(=O)Nc1cccc(-n2c(=O)n(C3CC3)c(=O)c3c(Nc4ccc(I)cc4F)n(C)c(=O)c(C)c32)c1 [Trametinib]; details: max 1 µM
Summary of the method: as §1

[5] = compound: CC(=O)O[C@H]1C(=O)[C@@]2(C)[C@H]([C@H](OC(=O)c3ccccc3)[C@]3(O)C[C@H](OC(=O)[C@H](O)[C@@H](NC(=O)c4ccccc4)c4ccccc4)C(C)=C1C3(C)C)[C@]1(OC(C)=O)CO[C@@H]1C[C@@H]2O [Paclitaxel]; details: max 3 µM
Summary of the method: as §1

[6] = compound: CC(=O)c1c(C)c2cnc(Nc3ccc(N4CCNCC4)cn3)nc2n(C2CCCC2)c1=O [Palbociclib]; details: max 10 µM
Summary of the method: as §1

[7] = compound: CC(C)n1c(=O)n(C)c2cnc3cc(F)c(-c4ccc(OCCCN5CCCCC5)nc4)cc3c21 [AZD1390]; details: max 0.3 µM
Summary of the method: as §1

[8] = compound: CC1(C)CCC(CN2CCN(c3ccc(C(=O)NS(=O)(=O)c4ccc(NCC5CCOCC5)c([N+](=O)[O-])c4)c(Oc4cnc5[nH]ccc5c4)c3)CC2)=C(c2ccc(Cl)cc2)C1 [Venetoclax]; details: max 1 µM
Summary of the method: as §1

[9] = compound: CC1=C(C(=CC=C1)Cl)NC(=O)C2=CN=C(S2)NC3=CC(=NC(=N3)C)N4CCN(CC4)CCO [Dasatinib]; details: max 2 µM
Summary of the method: as §1

[10] = compound: CC1=CN2[C@@H](C1)C=NC3=CC(=C(C=C3C2=O)OC)OCCCCCOC4=C(C=C5C(=C4)N=C[C@@H]6CC(=CN6C5=O)C)OC [SG3199]; details: max 0.001 µM
Summary of the method: as §1

[11] = compound: CCN(CCO)CCCOc1ccc2c(Nc3cc(CC(=O)Nc4cccc(F)c4)[nH]n3)ncnc2c1 [AZD2811]; details: max 1 µM
Summary of the method: as §1

[12] = compound: CCc1c2c(nc3ccc(O)cc13)-c1cc3c(c(=O)n1C2)COC(=O)[C@]3(O)CC [SN-38]; details: max 0.3 µM
Summary of the method: as §1

[13] = compound: CN(C)CCCOc1ccc(-c2ccc3ncc4c(c3c2)n(C2CCOCC2)c(=O)n4C)cn1 [AZD0156]
Summary of the method: as §1

[14] = compound: CN(CC[C@H](CSC1=CC=CC=C1)NC2=C(C=C(C=C2)S(=O)(=O)NC(=O)C3=CC=C(C=C3)N4CCC(CC4)[C@H](C5=CC=CC=C5C6=CC=C(C=C6)Cl)O)S(=O)(=O)C(F)(F)F)CCO [AZD4320]; details: max 1 µM
Summary of the method: as §1

[15] = compound: COc1cc(Nc2ncc3c(n2)-c2ccc(Cl)cc2C(c2c(F)cccc2OC)=NC3)ccc1C(=O)O [Alisertib]; details: max 10 µM
Summary of the method: as §1

[16] = compound: COc1cc([C@@H]2c3cc4c(cc3[C@@H](O[C@@H]3O[C@@H]5CO[C@@H](C)O[C@H]5[C@H](O)[C@H]3O)[C@H]3COC(=O)[C@H]23)OCO4)cc(OC)c1O [Etoposide]; details: max 10 µM
Summary of the method: as §1

[17] = compound: COc1cc2ncnc(Nc3ccc(F)c(Cl)c3)c2cc1OCCCN1CCOCC1 [Gefitinib]; details: max 10 µM
Summary of the method: as §1

[18] = compound: COc1cccc(OCCCN)c1-c1cc(Nc2cnc(C#N)cn2)n[nH]1 [Prexasertib]; details: max 1 µM
Summary of the method: as §1

[19] = compound: COc1cccc2c1C(=O)c1c(O)c3c(c(O)c1C2=O)C[C@@](O)(C(=O)CO)C[C@@H]3O[C@H]1C[C@H](N)[C@H](O)[C@H](C)O1 [Doxorubicin]; details: max 1 µM
Summary of the method: as §1

[20] = compound: COc1nnc2ccc(N3CCC(c4ccc(OCCN5CCN(C)C(=O)[C@H]5C)cc4)CC3)nn12 [AZD5153]; details: max 1 µM
Summary of the method: as §1

[21] = compound: CS(=O)(=O)CCNCc1ccc(-c2ccc3ncnc(Nc4ccc(OCc5cccc(F)c5)c(Cl)c4)c3c2)o1 [Lapatinib]; details: max 10 µM
Summary of the method: as §1

[22] = compound: C[C@@H](Nc1cc(F)cc(F)c1)c1cc(C(=O)N(C)C)cc2c(=O)cc(N3CCOCC3)oc12 [AZD8186]; details: max 10 µM
Summary of the method: as §1

[23] = compound: C[C@@H](Oc1cc(-c2cnn(C3CCNCC3)c2)cnc1N)c1c(Cl)ccc(F)c1Cl [Crizotinib]; details: max 10 µM
Summary of the method: as §1

[24] = compound: C[C@@H](c1ccc2nccn2c1)n1nnc2ncc(-c3cnn(C)c3)nc21 [Savolitinib]; details: max 1 µM
Summary of the method: as §1

[25] = compound: C[C@@H]1COCCN1C2=NC(=NC(=C2)C3(CC3)[S@](=N)(=O)C)C4=C5C=CNC5=NC=C4 [AZD6738]; details: max 10 µM
Summary of the method: as §1

[26] = compound: Cc1c2c(nn1C)CSCc1cc(n(C)n1)CSc1cc(c3ccccc3c1)OCCCc1c(C(=O)O)n(C)c3c-2c(Cl)ccc13 [AZD5991]; details: max 1 µM
Summary of the method: as §1

[27] = compound: Cc1cc2ncnn2cc1Nc1ncc2c(n1)n(C1CCOCC1)c(=O)n2C [AZD7648]; details: max 10 µM
Summary of the method: as §1

[28] = compound: Cc1nc(-c2cn3c(n2)-c2ccc(-c4cnn(C(C)(C)C(N)=O)c4)cc2OCC3)n(C(C)C)n1 [Taselisib]; details: max 10 µM
Summary of the method: as §1

[29] = compound: Cn1cnc2c(F)c(Nc3ccc(Br)cc3Cl)c(C(=O)NOCCO)cc21 [Selumetinib]; details: max 10 µM
Summary of the method: as §1

[30] = compound: N#Cc1cnc(Nc2cc(NC[C@H]3CNCCO3)c(C(F)(F)F)cn2)cn1 [SRA737]; details: max 10 µM
Summary of the method: as §1

[31] = compound: NC1(c2ccc(-c3nc4ccn5c(=O)[nH]nc5c4cc3-c3ccccc3)cc2)CCC1 [MK-2206]; details: max 10 µM
Summary of the method: as §1

[32] = compound: Nc1ccn([C@@H]2O[C@H](CO)[C@@H](O)C2(F)F)c(=O)n1 [Gemcitabine]; details: max 0.3 µM
Summary of the method: as §1

[33] = compound: O=C(Nc1ccc2[nH]nc(-c3ccncc3)c2c1)[C@@H]1CCN(CC(=O)N2CCN(c3ccc(-c4ncccn4)cc3)CC2)C1; details: max 5 µM
Summary of the method: as §1

[34] = compound: O=C(c1cc(Cc2n[nH]c(=O)c3ccccc23)ccc1F)N1CCN(C(=O)C2CC2)CC1 [Olaparib]; details: max 10 µM
Summary of the method: as §1

[35] = compound: O=c1[nH]cc(F)c(=O)[nH]1 [5-Fluorouracil]; details: max 20 µM
Summary of the method: as §1

Cell Line | IC50, cell viability 72 h [1] | IC50, cell viability 72 h [2] | IC50, cell viability 72 h ([3]; max 3 µM) | IC50, cell viability 72 h [4] | IC50, cell viability 72 h [5] | IC50, cell viability 72 h [6] | IC50, cell viability 72 h [7] | IC50, cell viability 72 h [8] | IC50, cell viability 72 h [9] | IC50, cell viability 72 h [10] | IC50, cell viability 72 h [11] | IC50, cell viability 72 h [12] | IC50, cell viability 72 h ([13]; max 3 µM) | IC50, cell viability 72 h [14] | IC50, cell viability 72 h [15] | IC50, cell viability 72 h [16] | IC50, cell viability 72 h [17] | IC50, cell viability 72 h [18] | IC50, cell viability 72 h [19] | IC50, cell viability 72 h [20] | IC50, cell viability 72 h [21] | IC50, cell viability 72 h [22] | IC50, cell viability 72 h [23] | IC50, cell viability 72 h [24] | IC50, cell viability 72 h [25] | IC50, cell viability 72 h [26] | IC50, cell viability 72 h [27] | IC50, cell viability 72 h [28] | IC50, cell viability 72 h [29] | IC50, cell viability 72 h [30] | IC50, cell viability 72 h [31] | IC50, cell viability 72 h [32] | IC50, cell viability 72 h [33] | IC50, cell viability 72 h [34] | IC50, cell viability 72 h [35] | IC50, cell viability 72 h ([3]; max 1 µM) | IC50, cell viability 72 h ([13]; max 1 µM)
MOG-G-UVW (Low Grade Glioma) | > 10000 nM | > 10000 nM | 582 nM | 148 nM | 3 nM | > 10000 nM | > 300 nM | > 1000 nM | > 2000 nM | > 1 nM | 344 nM | 11.7 nM | > 3000 nM | > 1000 nM | 562 nM | 1600 nM | > 10000 nM | 26.5 nM | 156 nM | 340 nM | > 10000 nM | 9250 nM | 4010 nM | > 1000 nM | 5120 nM | > 1000 nM | > 10000 nM | 3690 nM | > 10000 nM | > 10000 nM | > 10000 nM | 27.3 nM | > 5000 nM | > 10000 nM | > 20000 nM |  | 
MOLT-4 (T-Lymphoblastic Leukemia) | > 10000 nM | 4180 nM | 428 nM | > 1000 nM | 6.6 nM | 7920 nM | > 300 nM | > 1000 nM | > 2000 nM | > 1 nM | 31.1 nM | 2.99 nM | > 3000 nM | 93.1 nM | 37.6 nM | 123 nM | > 10000 nM | 13.2 nM | 57 nM | > 1000 nM | > 10000 nM | > 10000 nM | 2110 nM | > 1000 nM | 1690 nM | > 1000 nM | > 10000 nM | 5930 nM | > 10000 nM | 2310 nM | 6710 nM | 58.3 nM | > 5000 nM | > 10000 nM | 12800 nM |  | 
MV-4-11 (Acute Myeloid Leukemia) | > 10000 nM | 4430 nM |  | 70.3 nM | 3.97 nM | 1000 nM | > 300 nM | 7.99 nM | > 2000 nM | > 1 nM | 20.6 nM | 2.99 nM |  | 1.74 nM | 35.5 nM | 149 nM | 4160 nM | 17.1 nM | 33.1 nM | 24.2 nM | > 10000 nM | > 10000 nM | 1880 nM | > 1000 nM | 994 nM | 5.9 nM | > 10000 nM | 7860 nM | 3350 nM | 1290 nM | 7870 nM | 3.43 nM | 1350 nM | > 10000 nM | 939 nM | 503 nM | > 1000 nM
